Patent US6458557B1, “Enhancing growth in gram-positive microorganisms using formate supplementation and inactivation of formate-associated transport proteins” (Genencor International, Inc., priority 1997, dated 2002)

Key:
[1] = tested on: Bacillus subtilis (BG125); assay: Bactericidal tests of pH and formate (cell viability by plating); format: cell-based
Description: (§1) The Bacillus subtilis strain used was a derivative of I168 called BG125 (hisA1 thr5 trpC2) provided by J. A. Hoch. […] MM294 competent cells (Ausubel et al. 1992, Short Protocols in Molecular Biology. John Wiley and Sons, New York) were used for plasmid construction and propagation. LB broth and agar were used for growing MM294 cells and were supplemented with 50 ug/ml carbenicillin for selection. BG125 was grown on LB agar or in LB liquid medium supplemented with 10 μg/ml of kanamycin for selection.
(§2) Prior to shake flask experiments BG125 was grown from frozen stocks onto LB agar and grown overnight at 37° C. Cells were removed from the plates to 6 mls of SBG1% in test-tubes and grown at 37° C. for three hours. 0.2 mls of the seed culture was used to inoculate a pre-warmed 300 ml nephlometer flask containing 20 mls of the appropriate media. Flasks were incubated at 37° C. (except where indicated) and 300 rpm in a New Brunswick Scientific Shaker. At the indicated time points, the amount of cell growth was determined by a Klett-Summerson Photoelectric Colorimeter, the pH of the flask was taken using a Corning pH/iometer, and 1.25 mls was removed for further processing. The sample was spun in an eppendorf microfuge and 1 ml of supernatant was removed and mixed with 30 μls of perchloric acid HPLC analysis. The remaining supernatant was saved for glucose analysis. All samples were stored at −70° C. until analysis. Medium pH titrations were performed by the stepwise addition of HCl followed by pH measurement. The bactericidal tests of pH and formate on B. subtilis were carried out by growing BG125 as described above in SBG1% to a density of 5×10^6 cfu/ml. The cells were then adjusted to a concentration of 5×10^4 cfu/ml with buffered SBG1% adjusted to the pH indicated, with and without 50 mM formate. Cultures were then incubated at 37° C. with shaking for 3 hours. Samples were taken at 0, 1 2 and 3 hours, serially diluted and plated to LB at 37° C. for determination of cell viability.

[2] = Medium pH titration by stepwise addition of HCl; format: physicochemical; settings: 1% SBG with 3 g/l sodium formate or 80 mM MOPS, HCl added (FIG. 6)
Description: as §2, with “At the indicated time points, the amount of cell growth was determined by a Klett-Summerson Photoelectric Colorimeter, the pH of the flask was taken using a Corning pH/iometer, and 1.25 mls was removed for further processing.” left out

[3] = tested on: Bacillus subtilis (BG125); assay: Shake flask growth of BG125 in 1% SBG (Klett reading and flask pH); format: cell-based; settings: for growth in shake flask compared to other flasks: 1% SBG pH 7, 37° C., 3 g/l (44 mM) sodium formate and/or 80 mM MOPS (FIG. 5)
Description: as §1
Trimethaprim was dissolved in 50% ethanol and added to a final concentration of 50 ug/ml where indicated when the growth had reached a Klett reading between 20-30 units. The additions for trimethaprim experiments were added at the following final concentrations: 10 ug/ml glycine, 10 ug/ml methionine, 50 ug/ml thymidine, 20 ug/ml adenosine, and 20 ug/ml guanosine.
as §2

[4] = tested on: BG125 with ywcJ (FTAP 2) gene interruption; assay: Shake flask growth of BG125 with interruption of ywcJ (FTAP 2); format: cell-based, Bacillus subtilis; settings: 1% SBG, 3 g/l formate, ywcJ (FTAP 2) interruption (FIG. 17)
From the text: (§3) The PCR product was digested with BamHI and PstI and ligated with the 5.3-Kb BamHI-PstI fragment from plasmid pUC/Ts/Kan to construct the yrhG-homologue interruption plasmid pTRANS1. […] The PCR product was digested with BamHI and PstI and ligated with the 5.3-Kb BamHI-PstI fragment from plasmid pUC/Ts/Kan to construct the ywcJ-homologue interruption plasmid. […] The sequencing primers used were the mp19/pUC19 24-mer reverse sequencing primer and the mp19/pUC19 24-mer sequencing primer from New England Biolabs.
(§4) Resulting kanamycin resistant transformants were grown overnight in LB liquid medium containing kanamycin at 45° C. Integrants were plated and then colony purified on LB plates containing kanamycin at 45° C. Isolated colonies were then frozen in LB liquid medium plus 30% glycerol at −70° C. for preservation.
(§5) Prior to shake flask experiments BG125 was grown from frozen stocks onto LB agar and grown overnight at 37° C. Cells were removed from the plates to 6 mls of SBG1% in test-tubes and grown at 37° C. for three hours. 0.2 mls of the seed culture was used to inoculate a pre-warmed 300 ml nephlometer flask containing 20 mls of the appropriate media. Flasks were incubated at 37° C. (except where indicated) and 300 rpm in a New Brunswick Scientific Shaker. […]

[5] = tested on: BG125 with yrhG (FTAP 1) gene interruption; assay: Shake flask growth of BG125 with interruption of yrhG (FTAP 1); format: cell-based, Bacillus subtilis; settings: 1% SBG, 3 g/l formate
From the text: as §3, §4, §5

[6] = tested on: Bacillus subtilis (BG125); assay: Metabolic by-products (HPLC) and glucose in shake flask supernatants; format: cell-based; settings: flasks of FIG. 5: 3 g/l sodium formate, 80 mM MOPS; control about 1.5 g/L
Description: as §2, with “At the indicated time points, the amount of cell growth was determined by a Klett-Summerson Photoelectric Colorimeter, the pH of the flask was taken using a Corning pH/iometer, and 1.25 mls was removed for further processing.” left out

O=C[O-].[Na+] [sodium formate, Sodium formate]
loss of viability ([1]; pH 3.6, 50 mM formate, also without formate): lost complete viability within two hours
percent of survivors based on the initial titer ([1]; pH 3.6, one hour, 50 mM formate, 1.8 % without formate): 0.13%
percent survivors ([1]; pH 4.0, 3 hours, 50 mM formate, 38 % without formate): 1.2%
viability ([1]; pH 4.6, 50 mM formate): no decline in viability
viability ([1]; pH 7.0, 50 mM formate): no decline of viability
buffering activity in pH titration [2]: little buffering activity down to pH 5.0
growth in shake flask compared to other flasks [3]: more total growth
lag in the initial growth rate ([3]; 3 g/l sodium formate, 1% SBG): slight lag
rate of growth when formate was added ([3]; flask containing trimethaprim and growth enhancing additives (FIG. 11)): significantly reduced
duration of the initial lag period ([3]; higher concentrations of sodium formate, up to 21 g/l (FIG. 7)): correlation between increasing concentrations of formate and the duration of the initial lag period
culture density reached after the lag period ([3]; sodium formate up to 21 g/l (FIG. 7), versus control flask): reached higher densities than the control flask
effect of formate on growth of interrupted strain [4]: toxic effect which caused a decline of growth well below growth of the control strain with out formate
decrease in the growth enhancement normally seen with exogenous formate ([5]; yrhG (FTAP1) interruption (FIG. 16)): ~50%
growth enhancement effect of formate in interrupted strain ([5]; yrhG interruption (FIG. 16)): reduced the normal growth enhancement effect of formate by half

COc1cc(Cc2cnc(N)nc2N)cc(OC)c1OC [trimethaprim, Trimethaprim, reference compound]
effect on growth compared to SBG1% alone ([3]; trimethaprim 50 ug/ml added at Klett 20-30, SBG1% (FIG. 11)): inhibitory effect

O=S(=O)(O)CCCN1CCOCC1 [MOPS, reference compound]
buffering activity in pH titration [2]: showed buffering activity in the expected range
growth in shake flask compared to other flasks [3]: near the levels of the formate containing flask
acetate level reached [6]: ~2 g/L
